{"source": "patent EP4628519A1", "about": "“ORGANOGERMANIUM(IV) CARBOXYLATES AND MIXTURES OF GERMANIUM CARBOXYLATES WITH ORGANIC ACID ANHYDRIDES AS CATALYSTS” (Technische Universität Graz, priority 2024, dated 2025)", "key": {"[1]": {"assay": "Solubility of the germanium carboxylates in solvents (gravimetry or NMR)"}, "Stability in water": {"assay": "Stability in water", "conditions": "result in words"}}}
{"smiles": "CC(=O)OC(=O)C[CH2][Ge]([O]C(C)=O)([O]C(C)=O)[O]C(C)=O", "note": "[(PAA)Ge(OAc)3]", "values": [{"measurement": "solubility in organic solvents", "setting": "[1]; result in words", "result": "good soluble"}]}
{"smiles": "COC(=O)C[CH2][Ge]([O]C(C)=O)([O]C(C)=O)[O]C(C)=O", "note": "[(PME)Ge(OAc)3]", "values": [{"measurement": "solubility in organic solvents", "setting": "[1]; result in words", "result": "good soluble"}]}
{"smiles": "CC(=O)[O][Ge]([O]C(C)=O)([O]C(C)=O)[O]C(C)=O", "note": "[Ge(OAc)4, germanium(IV) tetraacetate]", "values": [{"measurement": "stability in water", "setting": "Stability in water", "result": "stable"}, {"measurement": "solubility in H2O", "setting": "[1]; H2O, result in words", "result": "good soluble"}, {"measurement": "m(Ge(OAc)4)", "setting": "[1]; Solvent Benzene, Method NMR", "result": 2.7, "unit": "g/L"}, {"measurement": "m(Ge(OAc)4)", "setting": "[1]; Solvent Chloroform, Method NMR", "result": 4.8, "unit": "g/L"}, {"measurement": "m(Ge(OAc)4)", "setting": "[1]; Solvent DCM, Method Gravimetry", "result": 4.2, "unit": "g/L"}, {"measurement": "m(Ge(OAc)4)", "setting": "[1]; Solvent H2O, Method Gravimetry", "result": 170, "unit": "g/L"}, {"measurement": "m(Ge(OAc)4)", "setting": "[1]; Solvent THF, Method Gravimetry", "result": 4.3, "unit": "g/L"}, {"measurement": "m(Ge(OAc)4)", "setting": "[1]; Solvent Toluene, Method Gravimetry", "result": 2.6, "unit": "g/L"}, {"measurement": "solubility", "setting": "[1]; in toluene, at room temperature", "result": 2600, "unit": "µg/mL"}, {"measurement": "solubility in organic solvents", "setting": "[1]; result in words", "result": "poorly soluble"}]}
{"smiles": "CCCCCCCCCCCC(=O)[O][Ge]([O]C(=O)CCCCCCCCCCC)([O]C(=O)CCCCCCCCCCC)[O]C(=O)CCCCCCCCCCC", "note": "[Ge(OLau)4, germanium(IV) tetralaurate]", "values": [{"measurement": "solubility, times higher", "setting": "[1]; Ge(OLau)4 relative to Ge(OAc)4", "result": "around 2 times"}, {"measurement": "solubility", "setting": "[1]; in benzene, determined via NMR", "result": 11000, "unit": "µg/mL"}, {"measurement": "solubility in organic solvents", "setting": "[1]; result in words", "result": "poorly soluble"}]}
{"smiles": "CC(=O)[O][Ge]([O]C(C)=O)([O]C(C)=O)[c]1ccccc1", "note": "[PhGe(OAc)3]", "values": [{"measurement": "solubility in organic solvents", "setting": "[1]; result in words", "result": "good soluble"}]}
